Measurements as given in article PMC10082777, “Pyrazole-sulfonamide scaffold featuring dual-tail strategy as apoptosis inducers in colon cancer” (Scientific Reports, 2023).

Target: T1, Carbonic Anhydrase IX (CA IX) (Homo sapiens, UniProt Q16790)
T1 construct: gene CA9; AA 1-459, GST tag
Test: CA inhibitor screening kit (BioVision K473-100), recombinant CA IX, absorbance at […] nm, kinetic mode
Type: biochemical

SMILES | IC50
Nc1cc(Nc2ccc(S(=O)(=O)Nc3ccccn3)cc2)n(-c2ccccc2)n1 [compound 3, 4-((3-Amino-1-phenyl-1H-pyrazol-5-yl)amino)-N-(pyridin-2-yl) benzenesulfonamide] | 0.336 µM
Nc1nn(-c2ccccc2)c(-c2ccccc2)c1C(=O)Nc1ccc(S(=O)(=O)Nc2ccccn2)cc1 [compound 11, 3-Amino-1,5-diphenyl-N-(4-(N-(pyridin-2-yl)sulfamoyl)phenyl)-1H-pyrazole-4-carboxamide] | 0.128 µM
